Data reported in patent publication US12138299B2, “Aldehyde dehydrogenase producing bacteria and methods of using same” (Children's Hospital Medical Center, priority 2021, dated 2024).

What was measured:
SFB = SFB DNA in feces by qPCR; assay type: in vivo, mice
C. rodentium [1] = assay: C. rodentium infection, CFUs in stool; assay type: in vivo, mice; conditions: day 6 p.i.
Experimental: (§1) METHOD DETAILS C. rodentium infections Mice were orally infected with 109 colony-forming units (CFUs) of C. rodentium suspended in sterile PBS. Post-infection CFUs were measured in stool homogenized in 500 μl PBS in a Tissue Lyser II at 30 Hz for 3 min. Homogenates were serially diluted 10-fold on MacConkey agar (BD) and CFUs were counted after 16 hr incubation at 37° C., normalized to fecal weight. For RA studies, mice were orally gavaged with 300 μg RA or vehicle (DMSO) in 100 μl corn oil q.d. 5 days prior to and during the infection. For RAR inhibitor (RARi) studies, 400 μg BMS493 (Torcis Bioscience) suspended in 10% DMSO/corn oil was administered to mice via oral gavage q.o.d. over 6 days pre-infection and 6 days post-infection. For Aldh1a2 inhibition, mice were orally gavaged with 400 mg/kg of WIN 18446 (Cayman Chemical) or vehicle (DMSO) in 100 μl corn oil for 8 days q.o.d.

mammalian ALDH = assay: Aldehyde dehydrogenase activity in mouse tissues; assay type: in vivo; conditions: liver of mice treated with WIN18446, 400 mg/kg oral gavage q.o.d. 8 days
Experimental: as §1, with “For Aldh1a2 inhibition, mice were orally gavaged with 400 mg/kg of WIN 18446 (Cayman Chemical) or vehicle (DMSO) in 100 μl corn oil for 8 days q.o.d.” left out
Aldehyde dehydrogenase activity Samples were homogenized in ice-cold ALDH assay buffer (Sigma, MAK082) for 3 min at 30 Hz and spun down at 13,000×g for 10 min. ALDH activity was measured according to manufacturer's instructions (Sigma, MAK082). Briefly, 50 μl of supernatants with equal protein concentrations determined using Pierce BCA Protein Assay Kit (Thermo Scientific) were combined with ALDH substrate and acetaldehyde in 96-well plates. […] Enzymatic activity was calculated as a function of amount NADH generated over time.

[2] = test system: downstream gene expression; assay: Relative mRNA expression in liver of WIN18446-treated mice; assay type: in vivo; conditions: mice treated with WIN18446
Experimental: as §1

Saa1/2 = Saa1/2 mRNA expression in intestinal organoids; assay type: cell-based, Murine; conditions: 1 μM WIN 18446
Experimental: Intestinal Organoids Murine organoids were generated from ileal IECs isolated from male WT C57BL/6J mice as previously described (Woo et al., 2019; Wu et al., 2020). Dissected terminal ileums (12 cm) were opened longitudinally, scraped to remove intestinal contents and outer cells, washed repeatedly in ice-cold PBS, and cut into 1 cm pieces. Ileum pieces were incubated in Chelation Buffer (2 mM EDTA in PBS) for 30 min at 4° C. with rotation. Tissues were subsequently transferred into new tubes containing Shaking Buffer (PBS, 43.3 mM sucrose, 54.9 mM sorbitol) and gently shaken by hand for 2-4 mins. Ileal crypts were resuspended and plated in Matrigel (Corning) overlaid with 500 μl organoid culture media (60% Advanced DMEM/F12 media supplemented with 10 mM HEPES, 2 mM […], 40% L-WRN conditioned media, 1×N2 supplement, 1×B27 supplement, 50 ng/mL murine EGF, and 10 μM Y-27632 ROCK inhibitor). Culture media was refreshed every 3-4 days. Organoid cultures were treated with 1 μM Aldh1a2 inhibitor WIN 18446 (Cayman Chemical) for 12 hours and then stimulated with 100 μl of SFB contents at 150 mg/ml PBS for 24 hours. For bacterial culture treatments in organoids, 100 μl of liquid cultures were directly added to organoids containing 1 μM retinol for 24 hours. After incubation, organoids were washed 3 times in PBS and lysed using the RNeasy kit (Qiagen).

C. rodentium [3] = assay: C. rodentium in vitro culture, bacterial density (OD600); assay type: cell-based, Citrobacter rodentium; conditions: 1 nM-10 μM RA
bcALDH1A1 = assay: Expression of ALDH by B. cereus cultured -/+ ROL; conditions: B. cereus cultured with retinol

Structure (SMILES): CC1(C)CC=C(C#Cc2ccccc2)c2cc(/C=C/c3ccc(C(=O)O)cc3)ccc21 [BMS493]
- SFB colonization (SFB DNA in feces) (SFB; RARi (BMS493) treatment, 400 μg oral gavage q.o.d.): did not alter SFB colonization
- C. rodentium pathogen levels (CFUs in stool) (C. rodentium [1]; GF mice treated with RARi): largely unaffected
- Protective effect of SFB against C. rodentium (CFUs in stool) (C. rodentium [1]; SFB-colonized mice treated with RARi): abrogated the protective effect of SFB against C. rodentium

Structure (SMILES): O=C(NCCCCCCCCNC(=O)C(Cl)Cl)C(Cl)Cl [WIN18446]
- Mammalian ALDH enzymatic activity (mammalian ALDH): decreased mammalian ALDH enzymatic activity
- Downstream gene expression (relative mRNA in liver) [2]: decreased
- SFB levels in the intestine (SFB DNA in feces) (SFB; following WIN18446 administration): similar
- Basal Saa1/2 expression in intestinal organoids (Saa1/2): decreased basal Saa1/2 expression

Structure (SMILES): CC1=C(/C=C/C(C)=C/C=C/C(C)=C/C(=O)O)C(C)(C)CCC1 [RA, all-trans retinoic acid]
- C. rodentium growth and viability (C. rodentium [3]): not directly impaired
- Protection against C. rodentium (CFUs in stool) (C. rodentium [1]; GF mice, 300 μg RA oral gavage q.d. prior to and during infection): sufficient to protect GF mice against C. rodentium
- C. rodentium pathogen levels (CFUs in stool) (C. rodentium [1]; Nos2−/− mice, exogenous RA): did not alter pathogen levels
- C. rodentium infection (CFUs in stool) (C. rodentium [1]; WT mice, exogenous RA): decreased C. rodentium infection
- C. rodentium infection (CFUs in stool) (C. rodentium [1]; control dnRAR^FF mice, RA-treatment): decreased infection
- RA-induced protection against C. rodentium (C. rodentium [1]; dnRAR^IEC mice, RA-treatment): greatly reduced

Structure (SMILES): CC1=C(/C=C/C(C)=C/C=C/C(C)=C/CO)C(C)(C)CCC1 [retinol, all-trans retinol]
- bcALDH1A1 expression by B. cereus (bcALDH1A1): increased bcALDH1A1 expression
